# Test results: paper PMC4997821, “The Lantibiotic NAI-107 Efficiently Rescues Drosophila melanogaster from Infection with Methicillin-Resistant Staphylococcus aureus USA300” (Antimicrobial Agents and Chemotherapy, 2016)
# Structures can show the parent of a compound that is named as a salt. Where two headings read alike, the source gives them in different places. Residues, ends and D or L forms follow the SMILES beside them.
# Legend:
# [1] = test system: S. aureus 8325-4; assay: microbe, parasite or virus in culture; type: cell-based, Staphylococcus aureus
# Description: (§1) S. aureus strains 8325-4 ([35]) and USA300 ([36]) were used as indicated for the individual experiments. Bacterial cultures were grown in cation-adjusted Mueller-Hinton broth (MHB-II) at the indicated temperature.
# (§2) MICs of all tested compounds were determined according to protocols using broth microdilution methodology ([46]), with minor modifications. S. aureus was grown in 10 ml MHB-II overnight at 37°C with shaking and then diluted 1:100 in fresh MHB-II and grown to an OD600 of 0.2 to 0.4. Cultures were then diluted 1:10 and grown to an OD600 of 0.2 to 0.4. These steps were performed to ensure balanced exponentially growing cultures as explained above. Finally, cultures were diluted to 1 × 10^6 CFU ml^−1 and further diluted 1:1 in microtiter plates in MHB-II with drug, leading to a final inoculum of 5 × 10^5 CFU ml^−1. MICs were determined in triplicate, and if more than one value was found, the highest was set as the MIC to keep the calculations conservative.
# [2] = test system: Drosophila melanogaster; assay: Survival of uninfected control flies injected with VEH and drug; type: in vivo
# Description: Injection assays were performed as previously described ([33]) by using a Nanoject-II microinjecter, but with minor modifications in the preparation of bacterial inoculums to obtain balanced cultures, as explained above. Flies were reared on standard Bloomington formulation at 25°C under a 12-h–12-h light-dark cycle and constant humidity. Adult Oregon R male flies (4 to 7 days old) were used for all injection experiments. Initial experiments with strain 8325-4 were performed in duplicate, with groups of 25 to 30 animals in each experiment. For USA300, experiments were performed in triplicate, except for the nisin experiment, which was done only in duplicate. The inoculum was prepared by resuspending cells in 10 mM MgSO4 vehicle (VEH) to an OD600 of 0.06 and was kept on ice, giving an inoculum dose of 100 to 450 CFU (8325-4) or 200 to 700 CFU (USA300) in the flies after injection of 18.4 nl. Bacterial and VEH injections were administered in the soft tissue surrounding the front legs, and drug treatment was administered in the lower thorax at 3 h postinfection. After injection of bacteria, flies were kept at 29°C and monitored for 48 to 96 h to determine mortality. Drug delivery was performed at the concentrations indicated for individual experiments. Flies which died within 3 h postinjection were considered to have died from handling and were disregarded. It is important that when drug concentrations were calculated, we performed a rough approximation of the fluid content of a fly. Fly fluid content was measured by drying out 10 groups of 50 flies each and comparing dry weight to wet weight. […] For simplicity and because we assumed that the compounds would not be distributed to all fluids, we used 0.5 μl fluid as our measure for calculating drug concentrations in the flies. Further, we assumed a rapid distribution of the compound in the open circulatory system of Drosophila and a slow clearance of the compounds by Malpighian tubules. Therefore, drug concentrations are given as the highest concentrations obtained, in multiples of the MIC.
# Plotting of data was performed using GraphPad Prism 5. All in vivo survival plots were created using Kaplan-Meier analysis of pooled data for repetitive experiments. Statistical analysis was carried out with the log rank (Mantel-Cox) test for comparison of survival curves. Experiments with P values of <0.05 were considered to be significant and are stated in Results. Statistical analysis was performed on the counts of CFU per fly for the different treatment groups by using one-way analysis of variance (ANOVA) (Kruskal-Wallis test) with Dunn's multiple-comparison test for comparison of individual groups. Relevant statistical results are stated in Results.
# [3] = test system: S. aureus 8325-4; assay: Drosophila injection assay, survival of infected flies; type: in vivo, Drosophila melanogaster; settings: >1,000× MIC, injection 3 h postinfection, 70-h period
# Description: (§3) Injection assays were performed as previously described ([33]) by using a Nanoject-II microinjecter, but with minor modifications in the preparation of bacterial inoculums to obtain balanced cultures, as explained above. Flies were reared on standard Bloomington formulation at 25°C under a 12-h–12-h light-dark cycle and constant humidity. Adult Oregon R male flies (4 to 7 days old) were used for all injection experiments. Initial experiments with strain 8325-4 were performed in duplicate, with groups of 25 to 30 animals in each experiment. For USA300, experiments were performed in triplicate, except for the nisin experiment, which was done only in duplicate. The inoculum was prepared by resuspending cells in 10 mM MgSO4 vehicle (VEH) to an OD600 of 0.06 and was kept on ice, giving an inoculum dose of 100 to 450 CFU (8325-4) or 200 to 700 CFU (USA300) in the flies after injection of 18.4 nl. […] After injection of bacteria, flies were kept at 29°C and monitored for 48 to 96 h to determine mortality. […] It is important that when drug concentrations were calculated, we performed a rough approximation of the fluid content of a fly. Fly fluid content was measured by drying out 10 groups of 50 flies each and comparing dry weight to wet weight. […]
# [4] = test system: S. aureus USA300 (MRSA); assay: MIC testing, broth microdilution; type: cell-based; settings: Staphylococcus aureus
# Description: as §1, §2
# [5] = test system: MRSA USA300; assay: Drosophila injection assay, survival of infected flies; type: in vivo, Drosophila melanogaster; settings: 10× MIC, 3 h postinfection, 96-h period
# Description: as §3
# [6] = test system: S. aureus USA300; assay: Bacterial titers (CFU per fly) after treatment; type: in vivo, Drosophila melanogaster; settings: USA300-infected flies, treatment 3 h postinfection
# Description: The growth rates of S. aureus strains were examined at 37°C in vitro to determine the growth period required to obtain balanced cultures, here defined as cultures grown exponentially for no fewer than 6 generations. Prior to injection of bacteria into the in vivo fly model, the inoculums were prepared as balanced cultures grown at 37°C. Since flies used for in vivo infections were kept at 29°C, the bacterial in vitro generation time was also determined at this temperature. In vitro growth rates were defined for growth in MHB-II by measurements of the optical density at 600 nm (OD600) at 10-min intervals. Furthermore, we determined the in vivo generation time based on CFU per animal by counting the CFU at various time points by homogenizing flies infected with bacteria and plating the homogenates on mannitol salt agar (MSA). This was performed in triplicate experiments; 3 individual flies were crushed in phosphate-buffered saline (PBS), and 10× dilution series were prepared, from which 10 μl each was spot plated on MSA in triplicate. The mean value for each experiment was determined as the number of CFU per fly and plotted. […] It should also be noted that drug treatment was performed at 3 h postinfection and that the number of CFU per fly for this time point was determined prior to treatment. […]
# [7] = test system: Drosophila melanogaster; assay: Adverse behavioral response (paralysis) after injection; type: in vivo; settings: flies injected with high concentrations (data not shown); uncoordinated movements, inability to walk or fly
# Description: as §3
# [8] = 8325-4, read-out: MIC (μM) 8325-4
# [9] = at the concentrations tested, not given
# [10] = broth microdilution, MHB-II, final inoculum 5 × 10^5 CFU ml^−1, triplicate, highest value set as MIC
# [11] = calculated from MIC in μg ml^−1 with the mol wt of the table, read-out: MIC (μM) 8325-4
structure (smiles),measurement,setting,value
CC(C)C[C@H](NC(=O)[C@H](Cc1c[nH]c2ccccc12)NC(=O)[C@H](Cc1c[nH]c2ccccc12)NC(=O)[C@H](CCCCN)NC(=O)[C@H](Cc1c[nH]c2ccccc12)NC(=O)[C@H](CCCNC(=N)N)NC(=O)[C@H](CCCNC(=N)N)NC(=O)[C@H](Cc1c[nH]c2ccccc12)NC(=O)[C@@H](N)CCCNC(=N)N)C(N)=O [HHC-9] (H-RWRRWKWWL-NH2),MIC (μg ml^−1) 8325-4,[1]; 8325-4,4 µg/mL
same,MIC,[1]; [8],2.71 µM
same,Effect on survival of control animals,[2]; [9],no obvious detrimental effects on survival
"CC1(C)S[C@@H]2[C@H](NC(=O)[C@H](N)c3ccccc3)C(=O)N2[C@H]1C(=O)O [Ampicillin, Ampicillin sodium salt, reference compound]",MIC,"[1]; Staphylococcus aureus, 83254, broth microdilution, MHB-II, final inoculum 5 × 10^5 CFU ml^−1, triplicate, highest value set as MIC, read-out: MIC (μg ml^−1) 8325-4",0.01 µg/mL
same,MIC,"[1]; Staphylococcus aureus, 83254, calculated from MIC in μg ml^−1 with the mol wt of the table, read-out: MIC (μM) 8325-4",2.86 µM
same,Effect on survival of 8325-4-infected flies,[3],efficiently promoted survival
same,Effect on survival of control animals,"[2]; >1,000× MIC, 70-h period",no lethal effects on control animals
"CN[C@H](CC(C)C)C(=O)N[C@H]1C(=O)N[C@@H](CC(N)=O)C(=O)N[C@H]2C(=O)N[C@H]3C(=O)N[C@H](C(=O)N[C@H](C(=O)O)c4cc(O)cc(O)c4-c4cc3ccc4O)[C@H](O)c3ccc(c(Cl)c3)Oc3cc2cc(c3O[C@@H]2O[C@H](CO)[C@@H](O)[C@H](O)[C@H]2O[C@H]2C[C@](C)(N)[C@H](O)[C@H](C)O2)Oc2ccc(cc2Cl)[C@H]1O [Vancomycin, vancomycin hydrochloride]",MIC,[4]; read-out: MIC (μM) USA300,1.38 µM
same,MIC,[4]; read-out: MIC (μg ml^−1) USA300,2 µg/mL
same,Survival of USA300-infected animals compared with NAI-107 at 100× MIC,[5],equivalent
same,Effect on survival of control animals,[2]; [9],no adverse effect on survival of control animals
same,Bacterial load compared to that with nisin treatment after 24 h,[6],significantly reduced the bacterial load
same,Proliferation of bacteria inside the animals,"[6]; CFU per fly at 0, 3, 12, 24 h on MSA",clearly disrupted the proliferation of bacteria
CC[C@H](C)[C@H](NC(=O)[C@H](Cc1c[nH]c2ccccc12)NC(=O)[C@H](CCCNC(=N)N)NC(=O)[C@H](Cc1c[nH]c2ccccc12)NC(=O)[C@H](Cc1c[nH]c2ccccc12)NC(=O)[C@H](CCCNC(=N)N)NC(=O)[C@H](CCCCN)NC(=O)[C@H](Cc1c[nH]c2ccccc12)NC(=O)[C@@H](N)CCCNC(=N)N)C(N)=O [GN-2] (H-RWKRWWRWI-NH2),MIC (μg ml^−1) 8325-4,[1]; [10],8 µg/mL
same,MIC,[1]; [11],5.43 µM
same,Adverse behavioral response that may indicate neurotoxicity,[7],partially paralyzed for up to 10 h postinjection
CC(C)C[C@H](NC(=O)[C@H](Cc1c[nH]c2ccccc12)NC(=O)[C@H](CCCNC(=N)N)NC(=O)[C@H](Cc1c[nH]c2ccccc12)NC(=O)[C@H](Cc1c[nH]c2ccccc12)NC(=O)[C@H](CCCCN)NC(=O)[C@H](CCCCN)NC(=O)[C@H](Cc1c[nH]c2ccccc12)NC(=O)[C@@H](N)CCCNC(=N)N)C(N)=O [GN-4] (H-RWKKWWRWL-NH2),MIC (μg ml^−1) 8325-4,[1]; [10],4 µg/mL
same,MIC,[1]; [11],2.77 µM
same,Effect on survival of control animals,"[2]; 10× MIC in fly, compared with VEH-injected flies",no detrimental effects on survival of flies
same,Adverse behavioral response that may indicate neurotoxicity,[7],partially paralyzed for up to 10 h postinjection
N=C(N)NCCC[C@H](NC(=O)[C@H](CCCNC(=N)N)NC(=O)[C@H](Cc1c[nH]c2ccccc12)NC(=O)[C@H](Cc1c[nH]c2ccccc12)NC(=O)[C@H](CCCCN)NC(=O)[C@H](Cc1c[nH]c2ccccc12)NC(=O)[C@H](Cc1c[nH]c2ccccc12)NC(=O)[C@H](CCCNC(=N)N)NC(=O)[C@@H](N)CCCCN)C(N)=O [HHC-36] (H-KRWWKWWRR-NH2),MIC (μg ml^−1) 8325-4,[1]; 8325-4,8 µg/mL
same,MIC,[1]; [8],5.38 µM
same,Effect on survival of control animals,[2]; [9],no obvious detrimental effects on survival
